Measured values taken from paper PMC6534110, “Enzyme characterization and biological activities of a resuscitation promoting factor from an oil degrading bacterium Rhodococcus erythropolis KB1” (PeerJ, 2019).

Molecular target: T1, Rpf-1 (Rhodococcus erythropolis, UniProt C0ZMT9)
T1 construct: N-terminal Trx-His-S tag of pET-32a(+) kept (37 kDa on SDS-PAGE); forward primer encodes MSGRHR, reverse primer encodes C-terminal AKTFLK; conserved Cys50, Glu51, Cys114
Assay: fluorogenic hydrolysis, 4-methylumbelliferone release ([…] nm)
Assay type: biochemical
Details: 22 μM printed, McIlvaine phosphate-citrate buffer pH 5.2, 37 °C, 30 min

T1 sequence (C0ZMT9 entry or part of it): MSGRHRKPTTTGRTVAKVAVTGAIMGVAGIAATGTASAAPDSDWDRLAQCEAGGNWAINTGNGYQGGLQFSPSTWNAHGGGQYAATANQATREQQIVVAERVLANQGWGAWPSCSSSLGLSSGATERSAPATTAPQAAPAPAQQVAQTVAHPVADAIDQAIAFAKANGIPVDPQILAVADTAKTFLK

CC(=O)N[C@H]1[C@H](Oc2ccc3c(C)cc(=O)oc3c2)O[C@H](CO)[C@@H](O[C@@H]2O[C@H](CO)[C@@H](O[C@@H]3O[C@H](CO)[C@@H](O)[C@H](O)[C@H]3NC(C)=O)[C@H](O)[C@H]2NC(C)=O)[C@@H]1O [4-methylumbelliferyl-β-D-N,N′,N″-triacetylchitotrioside]
fluorogenic hydrolysis, 4-methylumbelliferone release (360/455 nm): The recombinant Rpf-1 showed muralytic activity when determined with the artificial lysozyme substrate
